Patent US20240366717A1 (priority 2020, published 2024)
Square brackets hold non-standard residues; d marks the D form. Ends that are not written are not given here.

Legend:
[1] = Net peptide charge and isoelectric point as a function of pH; type: physicochemical; settings: pH 7
Description: The peptide may be purified. For example, the peptide may be lyophilized. […] Other peptides are within the scope of the disclosure.
Exemplary peptides having a charge of +5 to +9 include […](d)[…], […](d)[…], and […](d)[…]. In other embodiments, the purified peptide may be substantially neutral. […] Net charge may be selected by peptide design. Design of electrostatic charge in the peptide hydrogel may allow control of charge interaction with cell membrane and proteins.

[2] = system: E. coli; assay: Antibacterial assay of PEPXR hydrogels, E. coli; type: cell-based; settings: evaluated against E. coli, S. aureus and P. aeruginosa
Description: Thus, the peptide hydrogels described herein may generally comprise a high content of positively charged arginine (R) amino acids.

Substance | net charge [1] | antimicrobial activity [2]
VEVSVSVEV(d)PPTEVSVEVEV | net negative charge | –
VKVRVRVRVPPTRVRVRVKV (VKVRVRVRV[dP]PTRVRVRVKV-NH2) [PEP6R] | – | potent antimicrobial activity
